The text below walks through data of patent US10774042B2, “Crystalline forms of apremilast” (ZAKLADY FARMACEUTYCZNE POLPHARMA SA, priority 2016, dated 2020).

Holding throughout (assay type): physicochemical
Data set [1] in a line: Water solubility of crystalline forms. As to conditions: for Water solubility: Form B value according to literature findings and experimental data, Form M at the same conditions.
The nature of data set [2]: Dissolution studies of tablets, paddle method. As to conditions: at 30 minutes. The method, then:
Dissolution studies were performed using a Hanson SR8PLUS dissolution apparatus, according to European Pharmacopoeia apparatus, paddle method. The samples were tested in 900 mL pH 6.8 with 0.3% SLS at 37.0° C.+/−0.5° C. and the paddle rotation speed was set at 75 rpm. Dissolution study was conducted for 60 min and samples were analyzed using HPLC method.

Data set [3] can be described thus: Moisture sorption analysis (Dynamic Vapour Sorption). To be noted: result in words. The method, then:
Water Vapour Sorption isotherms were obtained using a Dynamic Vapour Sorption apparatus (model: DVS—Advantage, supplier: Surface Measurement Systems Limited). The DVS apparatus consists of an ultra-microbalance housed inside a temperature-controlled cabinet. The sample was placed into a DVS sample pan under a stream of nitrogen (200 sccm) at 25° C. The humidity was increased ramping in 10% RH (relative humidity) steps from close to 0% RH to 90% RH (sorption phase). Next the humidity was decreased in a similar fashion for the desorption phase. The sample was held at each RH step for mass stabilization (dm/dt 0.02%/min) but not less than 10 minutes. Two cycles of sorption and desorption were investigated.

In turn, `CCOc1cc([C@@H](CS(C)(=O)=O)N2C(=O)c3cccc(NC(C)=O)c3C2=O)ccc1OC` [Form B, N-[2-[(1S)-1-(3-ethoxy-4-methoxyphenyl)-2-(methylsulfonyl)ethyl]-1,3-dioxo-2,3-dihydro-1H-isoindol-4-yl]acetamide, reference compound] came in with a Water solubility in data set [1] of 7 to 12 µg/mL.
`CCOc1cc([C@@H](CS(C)(=O)=O)N2C(=O)c3cccc(NC(C)=O)c3C2=O)ccc1OC` [Form N, N-[2-[(1S)-1-(3-ethoxy-4-methoxyphenyl)-2-(methylsulfonyl)ethyl]-1,3-dioxo-2,3-dihydro-1H-isoindol-4-yl]acetamide]: the “Higher dissolution rate compared with prior art Form B” value in data set [2] is listed as “more than 50%”. Also, in data set [3], the Hygroscopicity entry is listed as “substantially non-hygroscopic” and the “Stability with respect to humidity” value was “stable with respect to humidity”.
For the compound `CCOc1cc([C@@H](CS(C)(=O)=O)N2C(=O)c3cccc(NC(C)=O)c3C2=O)ccc1OC` [Form M, N-[2-[(1S)-1-(3-ethoxy-4-methoxyphenyl)-2-(methylsulfonyl)ethyl]-1,3-dioxo-2,3-dihydro-1H-isoindol-4-yl]acetamide], the Hygroscopicity entry in data set [3] was “substantially non-hygroscopic”. The compound also came in with a Water solubility in data set [1] of 29 µg/mL. In addition, in data set [1] (same conditions), the “Water solubility of Form M relative to Form B (times greater)” value is reported as ~3 times.
